# ChEMBL document CHEMBL4017496 (J Med Chem, 2017)
# The source made the active and inactive calls. The rule behind the calls is not given here.
# How the values were obtained:
# Mesenchymal stem cell [1] = assay: Induction of adipogenesis in human bone marrow-derived mesenchymal stem cells assessed as increase in adiponectin production at 20.4 uM after 7 days in presence of IDX; format: functional, cell-based
# Mesenchymal stem cell [2] = assay: Induction of adipogenesis in human bone marrow-derived mesenchymal stem cells assessed as increase in number and size of lipid droplets at 20 uM after 7 days in presence of IDX by oil red O staining based inverted microscopic method; format: functional
# Mus musculus = assay: Antidiabetic activity in STZ-induced diabetic C57BL/6J mouse assessed as insulin sensitivity by measuring reduction of serum triglyceride level at 20 mg/kg,po for 5 days; format: functional, organism-based
# [3] = target: T1, Glucocorticoid receptor (Homo sapiens) (UniProt P04150); assay: Displacement of Fluormone-GS1 from human GST-tagged glucocorticoid receptor LBD at 4 uM by TR-FRET assay
# T1 sequence (whole entry): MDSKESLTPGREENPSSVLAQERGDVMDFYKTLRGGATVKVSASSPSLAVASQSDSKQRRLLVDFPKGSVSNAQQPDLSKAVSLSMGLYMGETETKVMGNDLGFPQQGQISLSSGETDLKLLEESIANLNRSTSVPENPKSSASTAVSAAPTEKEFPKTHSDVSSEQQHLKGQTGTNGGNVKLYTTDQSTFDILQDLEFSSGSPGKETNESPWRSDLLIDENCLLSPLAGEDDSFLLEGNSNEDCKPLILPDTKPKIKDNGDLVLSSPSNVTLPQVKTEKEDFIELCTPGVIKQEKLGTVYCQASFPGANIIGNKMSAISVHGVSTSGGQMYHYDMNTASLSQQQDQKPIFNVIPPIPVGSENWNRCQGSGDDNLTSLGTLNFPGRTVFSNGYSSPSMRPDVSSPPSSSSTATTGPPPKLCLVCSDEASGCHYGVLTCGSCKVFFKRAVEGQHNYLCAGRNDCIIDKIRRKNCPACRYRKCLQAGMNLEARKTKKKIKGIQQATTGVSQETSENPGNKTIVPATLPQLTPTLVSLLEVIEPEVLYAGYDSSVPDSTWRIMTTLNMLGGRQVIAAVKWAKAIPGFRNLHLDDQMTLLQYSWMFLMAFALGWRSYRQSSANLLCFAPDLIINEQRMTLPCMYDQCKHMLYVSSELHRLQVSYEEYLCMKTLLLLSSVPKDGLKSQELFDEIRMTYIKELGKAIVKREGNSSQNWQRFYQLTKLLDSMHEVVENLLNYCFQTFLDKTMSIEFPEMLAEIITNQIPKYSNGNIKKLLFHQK
smiles,measurement,setting,value
CNC(=O)[C@H]1O[C@@H](n2cnc3c(NCc4cccc(I)c4)ncnc32)[C@H](O)[C@@H]1O [IB-MECA],Activity,Mesenchymal stem cell [1],Active
same,Activity,Mesenchymal stem cell [2],Active
same,Activity,Mus musculus,Active
same,inhibition,[3],inactive
